Laboratory results published in paper PMC3090687 (Journal of medicinal chemistry, 2011).

Test: in vivo pharmacokinetics in mice, intravenous and oral
Set-up: species or system mouse

CCC(=O)N1CCN(c2ccc(-n3c(=O)ccc4cnc5ccc(-c6cnc7ccccc7c6)cc5c43)cc2C(F)(F)F)CC1 [Compound 1, 1-(4-(4-propionylpiperazin-1-yl)-3-(trifluoromethyl)phenyl)-9-(quinolin-3-yl)benzo[h][1,6]naphthyridin-2(1H)-one]
oral bioavailability, in words (oral administration): very limited oral bioavailability

Nc1ccc(-c2ccc3ncc4ccc(=O)n(-c5cccc(C(F)(F)F)c5)c4c3c2)cn1 [Compound 3, 9-(6-aminopyridin-3-yl)-1-(3-(trifluoromethyl)phenyl)benzo[h][1,6]naphthyridin-2(1H)-one]
improvement of bioavailability compared to compound 1 (oral, comparison with ref 22): approximately 10 fold
